Several values for one entry are separate records, joined by “and”; a condition that tells them apart may be missing. Identical values can stand only once.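 Test compounds were applied to cells in 96-well plates for 48 hours at 5 doses. Here, GI50 denotes the concentration required for 50% inhibition of growth. TGI is the concentration that stops growth completely.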
Key:
Assay in all cases: inhibition of tumour cell growth, NCI panel, 48 h
[1] = tested on: BT-549 breast
[2] = tested on: EKVX NSCLC
[3] = tested on: HS 578T breast
[4] = tested on: OVCAR-3 ovarian
[5] = tested on: OVCAR-8 ovarian
[6] = tested on: PC-3 prostate
[7] = tested on: SF-268 CNS
[8] = tested on: SF-539 CNS
[9] = tested on: SN12C renal
[10] = tested on: TK-10 renal

| SMILES | GI50 [1] [µM] | TGI [1] | GI50 [2] [µM] | TGI [2] | GI50 [3] [µM] | TGI [3] | GI50 [4] [µM] | TGI [4] | GI50 [5] [µM] | TGI [5] | GI50 [6] [µM] | TGI [6] | GI50 [7] [µM] | TGI [7] | GI50 [8] [µM] | TGI [8] [µM] | GI50 [9] [µM] | TGI [9] | GI50 [10] [µM] | TGI [10] |
| --- | --- | --- | --- | --- | --- | --- | --- | --- | --- | --- | --- | --- | --- | --- | --- | --- | --- | --- | --- | --- |
| COc1ccc(N2CCN(C(=O)c3ccccc3Nc3ccnc(C(F)(F)F)c3)CC2)cc1 | 68.5 | > 100 µM | 39.3 | > 100 µM | 60.6 | > 100 µM | 28.5 | > 100 µM | 40.7 | > 100 µM | 18.7 | > 100 µM | > 100 | > 100 µM | > 100 | > 100 | 64.4 | > 100 µM | 54.7 | > 100 µM |
| Cl.[Pt].[c-]1ccccc1-c1ccccn1.c1ccc(P(c2ccccc2)C([PH+](c2ccccc2)c2ccccc2)[PH+](c2ccccc2)c2ccccc2)cc1 | 2.09 | 6.82 µM | 2.3 | 62.2 µM | 2.22 | 20.8 µM | 1.59 | 7.99 µM | 0.853 | > 100 µM | 0.683 | 15.3 µM | 2.59 | 20.9 µM | 1.54 | 5.6 | 0.942 | 7.03 µM | 1.74 | 15.5 µM |
| Cc1ccc2c(c1)C(=O)c1c-2n(CCCN)c(=O)c2cc([N+](=O)[O-])ccc12 | 0.746 | 1.57 µM | 0.917 | 2.22 µM | 1.54 | 3.44 µM | 0.521 | 1.32 µM | 0.387 | 1.33 µM | 0.437 | 1.17 µM | 0.0373 | 0.555 µM | 0.732 | 1.44 | 0.281 | 1.02 µM | 0.567 | 1.24 µM |
| CN(C)c1ccc(/C=C2\C[C@H]3[C@@H]4CC=C5C[C@@H](N6CCCC6)CC[C@]5(C)[C@H]4CC[C@]3(C)[C@H]2O)cc1 | 17.4 | 9.72 µM and 53.1 µM | 3.67 | 7.72 µM and 26.4 µM | 2.83 | 2.5 µM and 7.93 µM | 2.06 | 2.7 µM and 4.86 µM | 2.87 | 1.75 µM and 5.47 µM | 2.82 | 50 µM and 12 µM | 2.93 | 2.4 µM and 9.84 µM | – | 12.8 | 2.42 | 3.3 µM and 5.6 µM | 3.76 | 3.17 µM and 11.7 µM |
| Cc1ccc(Cl)cc1Nc1nc(C(F)(F)F)ccc1C(=O)Nc1cccc(C(F)(F)F)c1 | 3.56 | 13.3 µM | 2.7 | 10.9 µM | 4.66 | 20 µM | 4.18 | 20.1 µM | 3.62 | 15.8 µM | 2.07 | 13.4 µM | 3.59 | 13.8 µM | 3.95 | 14.1 | 4.29 | 18.7 µM | 5.58 | 17.8 µM |
| O=C(NCc1cccnc1)/C(=C\c1ccc(Br)cc1)S(=O)(=O)c1ccccc1 | 0.913 | 2.21 µM | 1.3 | 2.61 µM | 1.25 | 5.31 µM | 0.419 | 1.7 µM | 0.705 | 3.33 µM | 1.06 | 2.61 µM | 1 | 2.82 µM | 0.663 | 1.61 | 0.727 | 2.19 µM | 1.5 | 2.91 µM |

From PubChem BioAssay (NCI)
